This note sets out measurements from US7169787B2, “7-azaindoles, use thereof as phosphodiesterase 4 inhibitors and method for producing the same” (Elbion AG, priority 2000, dated 2007).

Data set [1] deals with PDE 4. Kind of data set: Inhibition of phosphodiesterase 4 (enzyme preparation from human PMNL, [3H]-cAMP). It is filed as biochemical. As to conditions: PDE 4 from human PMNL cytosol, 0.5 μM [3H]-cAMP. Here is the method: The PDE 4 activity is determined in enzyme preparations from human polymorphonuclear […] (PMNL) and the PDE 2, 3 and 5 activity is determined with PDE from human thrombocytes. Human blood was anti-coagulated with citrate. By centrifuging at 700×g for 20 minutes at room temperature, the thrombocyte-rich plasma in the supernatant is separated from the erythrocytes and leukocytes. The thrombocytes are lysed by ultrasound and used in the PDE 3 and PDE 5 assays. For the determination of the PDE 2 activity, the cytosolic thrombocyte fraction is purified on an anionic exchange column by means of NaCl gradients and the PDE 2 peak is obtained for the assay. The PMNLs for the PDE 4 determination are isolated by a subsequent dextran sedimentation, followed by a gradient centrifugation with Ficoll-Paque. After the cells have been washed twice, the erythrocytes, still contained, are lysed within 6 minutes at 4° C. by the addition of 10 mL of hypotonic buffer (155 mM of NH4Cl, 10 mM of NaHCO3, 0.1 mM of EDTA, pH=7.4). The PMNLs, which are still intact, are washed twice with PBS and lysed with ultrasound. The supernatant of a one-hour centrifugation at 4° C. at 48,000×g contains the cytosolic fraction of the PDE 4 and is used for the PDE 4 measurements.
The phosphodiesterase activity is determined using the method described by Thompson et al. with some modifications (Thompson, W. J. and M. M. Appleman, Assay of cyclic nucleotide phosphodiesterase and resolution of multiple molecular forms of the enzyme, Adv. Cycl. Nucl. Res. 1979, 10, 69–92).
The reaction mixtures contain 50 mM of tris hydrochloride (pH 7.4), 5 mM of magnesium chloride, the inhibitors in various concentrations, the corresponding enzyme preparation as well as the further components necessary for determining the individual isoenzymes (see below). The reaction is started by the addition of the substrate, 0.5 μM of [^3H]-cAMP or [^3H]-cGMP (approximately 6000 CPM per test). The final volume is […]. Test substances are mixed as stock solutions in DMSO. The DMSO concentration in the reaction mixture is 1% v/v. The PDE activity is not affected by this concentration of DMSO. After the reaction is started by the addition of substrate, samples are incubated for 30 minutes at 37° C. The reaction is stopped by heating the test tubes for 2 minutes at 110° C. The samples remain for a further 10 minutes in ice. The addition of 30 μL of 5′-nucleotidase (1 mg/mL, from a poisonous snake suspension from Crotalus adamanteus) is followed by a 10-minutes incubation at 37° C. The samples are stopped on ice, in each case 400 μL of a mixture of Dowex, water and ethanol (1+1+1) is added, mixed well and incubated once again for 15 minutes on ice. The reaction vessels are centrifuged for 20 minutes at 3000×g. Aliquots of the supernatant (200 μL) are transferred directly to scintillation vessels. After the addition of 3 mL of scintillator, the samples are measured in the beta counter.
[^3H]-cAMP is used as substrate for the determination of the PDE 4, 3 and 2 activity and [^3H]-cGMP is used as substrate for the determination of the PDE 5 activity. The enzyme activities, which are nonspecific in each case, are determined in the presence of 100 μM of Rolipram for the determination of PDE 4 and in the presence of 100 μM of IBMX for the determination of the PDE 3 and 5 and subtracted from the test values. The incubation formulations of the PDE 3 assays contained 10 μM of Rolipram, in order to inhibit possible contaminations by PDE 4. The PDE 2 is tested with an SPA assay of the Amersham Company. The assay is carried out in the presence of the activator of the PDE 2 (5 μM of cGMP).

Data set [2] has as its system Lewis Rats. As to the kind of experiment: Inhibition of the lipopolysaccharide (LPS)-induced lung neutrophilia. The note with it: 1 mg/kg p.o., 2 h before LPS provocation; BAL 6 h after provocation. The format is in vivo, rat. How it is done:
The inhibition of pulmonary neutrophil infiltration by the inventive substances is tested on male Lewis Rats (250–350 g). On the day of the experiments, the animals are placed individually in open 1 L Plexiglas boxes, which are connected to a head-nose exposure device. The animals are exposed to an aerosol of a lipopolysaccharide suspension (100 μg LPS/mL of 0.1% hydroxylamine solution) in PBS (LPS provocation). The LPS/hydroxylamine aerosol is nebulized by a nebulizer (Bird Micronebulizer, Palm Springs Calif., USA), which is operated with compressed air (0.2 MPa). The exposure time is 40 minutes, normal controls being nebulized also for 40 minutes with an aerosol of 0.1% hydroxylamine solution in PBS.
Six hours after the LPS provocation, there is a maximum, massive migration of neutrophil granulocytes into the lungs of the animals. At this time, the animals are anesthetized with an excess of ethyl urethane (1.5 g/kg of body weight i.p.) and a bronchoalveolar lavage (BAL) with 3×4 mL of Hank's balance solution is carried out. The total cell count and the number of neutrophil granulocytes of the pooled BAL liquid are subsequently determined with an automatic cell differentiation instrument (Bayer Diagnostics Technicon HIE). For each animal, the neutrophiles (NEUTRO) in the BAL are calculated in millions/animal: NEUTRO/μl×BAL recovery (mL)=NEUTRO/animal.
For each test, 2 control groups were also run (nebulization with 0.1% hydroxylamine solution in PBS and nebulization with 100 μg LPS/mL of 0.1% hydroxylamine solution in PBS).
The percentage inhibition of the neutrophilia of the experimental group, treated with substance, was calculated according to the following formula: {((LPSC−SC)−(LPSD−SC))/(LPSC−SC)}×100%=% inhibition SC=vehicle-treated control group challenged with 0.1% hydroxylamine solution; LPSC=vehicle-treated control group challenged with LPS (100 μg/mL 0.1% hydroxylamine solution); LPSD=substance-treated experimental group challenged with LPS (100 μg/mL 0.1% hydroxylamine solution) […]

As to `Cc1ccc(Cn2cc(C(=O)C(=O)Nc3c(Cl)cncc3Cl)c3cccnc32)cc1` [Example 22], the melting point lay within 176 to 178 °C. The molecule also registered a half-inhibitory concentration (IC50) in data set [1] of 2 nM. The “Inhibition of neutrophilia (table titled Inhibition of Eosinophilia)” value in data set [2] came to 64%.
